Results as given in patent US10660867B2, “Beta-hydroxyketones as topical active ingredients for the prevention or treatment of photodermatoses” (Merck Patent GmbH, priority 2015, dated 2020).

Legend:
[1] = UV absorption spectrum; format: physicochemical
Excerpt: The absorption behaviour for the compound 3-(4-tert-butylphenyl)-3-hydroxy-1-(4-methoxy-phenyl)propan-1-one is depicted in FIG. 1 as representative.

[2] = photoconversion of compound A into the UVA filter avobenzone on irradiation; format: physicochemical
Excerpt: As representative of the compounds of the formula (I), the efficacy of 3-(4-tert-butylphenyl)-3-hydroxy-1-(4-methoxyphenyl)propan-1-one in vivo is confirmed in the experimental part, where the proportion of UVA filter formed by decomposition of 3-(4-tert-butylphenyl)-3-hydroxy-1-(4-methoxy-phenyl)propan-1-one on exposure to UV light under the selected conditions of the study is only 0.1% by weight.
Under the conditions of the in vivo study, conversion of compound A into the UVA filter avobenzone in an amount which could exert an influence on the skin appearances of the test subjects can be excluded.
This can be stated because if a 2% solution of compound A in Cosmacol® ELI (C12-13 alkyl lactate) is irradiated with UVA/UVB light (20/1) in a dose of 5 MED (corresponding to 250 kJ/m^2), 0.1% of avobenzone is formed by conversion.
Under the conditions of the in vivo experiment, a UVA dose of 20 J/cm^2 (corresponding to 200 kJ/m^2) is irradiated, i.e. even less than 0.1% of avobenzone will form by conversion under these conditions.

[3] = system: transcription factor NF-κB; experiment: inhibition of activation of the transcription factor NF-κB
Excerpt: It is furthermore thought that the compounds of the formula (I), as described above or preferably described below, have an inflammation-inhibiting action. This property also supports the therapeutic and non-therapeutic treatment of photodermatosis. […] 1998, 95(6):729-31.

[4] = system: test subjects with known PLE syndrome; experiment: in vivo comparative study, skin reactions on UVA irradiation of treated skin; design: key to skin reaction on UVA irradiation, treated skin: 0 denotes no reaction; ± denotes weak reaction; + denotes clear reaction; ++ denotes strong reaction; +++ denotes very strong reaction; conditions: for skin reaction on UVA irradiation, treated skin: 2.0% by wt. in O/W emulsion, 2 mg/cm^2 daily
Method: In the in vivo study described below, the following O/W emulsion is used:
A comparative study with positive control is carried out on 6 test subjects with known PLE syndrome. The study was carried out in Germany in April over a period of 5 days. The positive control was untreated, irradiated skin. The irradiation was carried out with 100% UVA light in a sub-erythemal dose, which was determined individually. The preparation was applied daily to half of the décolletage (2 mg/cm^2).
The measurements were carried out twice daily, 10 min. after application of the preparation and immediately after irradiation.
In the case of all test subjects, skin manifestations which have the presentation of polymorphic light eruption appeared on untreated skin. In case of 4 test subjects, no polymorphic light eruption was observed on treated skin. Only in the case of 2 test subjects was a weak reaction observed.

[5] = of 6 test subjects with known PLE syndrome, 5 days, UVA irradiation

absorption in the UVA region ([1]; UVA, 320-400 nm): does not absorb in the UVA region
absorption ([1]; wavelength 215.5 nm): 0.22
absorption ([1]; wavelength 273 nm): 0.22
avobenzone formed by conversion ([2]; 2% solution in Cosmacol ELI (C12-13 alkyl lactate), UVA/UVB light (20/1), dose 5 MED (250 kJ/m^2)): 0.1%
avobenzone formed by conversion ([2]; conditions of the in vivo experiment, UVA dose 20 J/cm^2 (200 kJ/m^2)): less than 0.1%
proportion of UVA filter formed by decomposition on exposure to UV light ([2]; under the selected conditions of the study): 0.1 % by weight
SMILES: COc1ccc(C(=O)CC(O)c2ccc(C(C)(C)C)cc2)cc1 (stereo not shown) [Compound A, 3-(4-tert-butylphenyl)-3-hydroxy-1-(4-methoxyphenyl)-propan-1-one]
activation of the transcription factor NF-κB [3]: inhibits activation
effect on manifestations of polymorphic light eruption on irradiation ([4]; 6 test subjects, treated vs untreated irradiated skin): suppresses or significantly reduces the manifestations of polymorphic light eruption
test subjects with no polymorphic light eruption observed on treated skin [4, 5]: 4 test subjects
test subjects with weak reaction on treated skin [4, 5]: 2 test subjects
skin reaction on UVA irradiation, treated skin ([4]; test subject 1, day 1, after irradiation): 0
skin reaction on UVA irradiation, treated skin ([4]; test subject 1, day 1, before irradiation): 0
skin reaction on UVA irradiation, treated skin ([4]; test subject 1, day 2, after irradiation): 0
skin reaction on UVA irradiation, treated skin ([4]; test subject 1, day 2, before irradiation): 0
skin reaction on UVA irradiation, treated skin ([4]; test subject 1, day 3, after irradiation): 0
skin reaction on UVA irradiation, treated skin ([4]; test subject 1, day 3, before irradiation): 0
skin reaction on UVA irradiation, treated skin ([4]; test subject 1, day 4, after irradiation): ±
skin reaction on UVA irradiation, treated skin ([4]; test subject 1, day 4, before irradiation): ±
skin reaction on UVA irradiation, treated skin ([4]; test subject 1, day 5, after irradiation): ±
skin reaction on UVA irradiation, treated skin ([4]; test subject 1, day 5, before irradiation): ±
skin reaction on UVA irradiation, treated skin ([4]; test subject 2, day 1, after irradiation): 0
skin reaction on UVA irradiation, treated skin ([4]; test subject 2, day 1, before irradiation): 0
skin reaction on UVA irradiation, treated skin ([4]; test subject 2, day 2, after irradiation): 0
skin reaction on UVA irradiation, treated skin ([4]; test subject 2, day 2, before irradiation): 0
skin reaction on UVA irradiation, treated skin ([4]; test subject 2, day 3, after irradiation): 0
skin reaction on UVA irradiation, treated skin ([4]; test subject 2, day 3, before irradiation): 0
skin reaction on UVA irradiation, treated skin ([4]; test subject 2, day 4, after irradiation): 0
skin reaction on UVA irradiation, treated skin ([4]; test subject 2, day 4, before irradiation): 0
skin reaction on UVA irradiation, treated skin ([4]; test subject 2, day 5, after irradiation): 0
skin reaction on UVA irradiation, treated skin ([4]; test subject 2, day 5, before irradiation): 0
skin reaction on UVA irradiation, treated skin ([4]; test subject 3, day 1, after irradiation): 0
skin reaction on UVA irradiation, treated skin ([4]; test subject 3, day 1, before irradiation): 0
skin reaction on UVA irradiation, treated skin ([4]; test subject 3, day 2, after irradiation): 0
skin reaction on UVA irradiation, treated skin ([4]; test subject 3, day 2, before irradiation): 0
skin reaction on UVA irradiation, treated skin ([4]; test subject 3, day 3, after irradiation): 0
skin reaction on UVA irradiation, treated skin ([4]; test subject 3, day 3, before irradiation): 0
skin reaction on UVA irradiation, treated skin ([4]; test subject 3, day 4, after irradiation): 0
skin reaction on UVA irradiation, treated skin ([4]; test subject 3, day 4, before irradiation): 0
skin reaction on UVA irradiation, treated skin ([4]; test subject 3, day 5, after irradiation): 0
skin reaction on UVA irradiation, treated skin ([4]; test subject 3, day 5, before irradiation): 0
skin reaction on UVA irradiation, treated skin ([4]; test subject 4, day 1, after irradiation): 0
skin reaction on UVA irradiation, treated skin ([4]; test subject 4, day 1, before irradiation): 0
skin reaction on UVA irradiation, treated skin ([4]; test subject 4, day 2, after irradiation): 0
skin reaction on UVA irradiation, treated skin ([4]; test subject 4, day 2, before irradiation): 0
skin reaction on UVA irradiation, treated skin ([4]; test subject 4, day 3, after irradiation): 0
skin reaction on UVA irradiation, treated skin ([4]; test subject 4, day 3, before irradiation): 0
skin reaction on UVA irradiation, treated skin ([4]; test subject 4, day 4, after irradiation): 0
skin reaction on UVA irradiation, treated skin ([4]; test subject 4, day 4, before irradiation): 0
skin reaction on UVA irradiation, treated skin ([4]; test subject 4, day 5, after irradiation): 0
skin reaction on UVA irradiation, treated skin ([4]; test subject 4, day 5, before irradiation): 0
skin reaction on UVA irradiation, treated skin ([4]; test subject 5, day 1, after irradiation): 0
skin reaction on UVA irradiation, treated skin ([4]; test subject 5, day 1, before irradiation): 0
skin reaction on UVA irradiation, treated skin ([4]; test subject 5, day 2, after irradiation): 0
skin reaction on UVA irradiation, treated skin ([4]; test subject 5, day 2, before irradiation): 0
skin reaction on UVA irradiation, treated skin ([4]; test subject 5, day 3, after irradiation): 0
skin reaction on UVA irradiation, treated skin ([4]; test subject 5, day 3, before irradiation): 0
skin reaction on UVA irradiation, treated skin ([4]; test subject 5, day 4, after irradiation): 0
skin reaction on UVA irradiation, treated skin ([4]; test subject 5, day 4, before irradiation): 0
skin reaction on UVA irradiation, treated skin ([4]; test subject 5, day 5, after irradiation): 0
skin reaction on UVA irradiation, treated skin ([4]; test subject 5, day 5, before irradiation): 0
skin reaction on UVA irradiation, treated skin ([4]; test subject 6, day 1, after irradiation): 0
skin reaction on UVA irradiation, treated skin ([4]; test subject 6, day 1, before irradiation): 0
skin reaction on UVA irradiation, treated skin ([4]; test subject 6, day 2, after irradiation): 0
skin reaction on UVA irradiation, treated skin ([4]; test subject 6, day 2, before irradiation): 0
skin reaction on UVA irradiation, treated skin ([4]; test subject 6, day 3, after irradiation): ±
skin reaction on UVA irradiation, treated skin ([4]; test subject 6, day 3, before irradiation): ±
skin reaction on UVA irradiation, treated skin ([4]; test subject 6, day 4, after irradiation): ±
skin reaction on UVA irradiation, treated skin ([4]; test subject 6, day 4, before irradiation): ±
skin reaction on UVA irradiation, treated skin ([4]; test subject 6, day 5, after irradiation): ±
skin reaction on UVA irradiation, treated skin ([4]; test subject 6, day 5, before irradiation): ±
